{"source": "ChEMBL document CHEMBL4725478", "about": "“Spiroindoline-Capped Selective HDAC6 Inhibitors: Design, Synthesis, Structural Analysis, and Biological Evaluation” (ACS Med Chem Lett, 2020)", "key": {"[1]": {"biological_target": "T1, Protein deacetylase HDAC6 (Homo sapiens) (UniProt Q9UBN7)", "T1 sequence (whole entry)": "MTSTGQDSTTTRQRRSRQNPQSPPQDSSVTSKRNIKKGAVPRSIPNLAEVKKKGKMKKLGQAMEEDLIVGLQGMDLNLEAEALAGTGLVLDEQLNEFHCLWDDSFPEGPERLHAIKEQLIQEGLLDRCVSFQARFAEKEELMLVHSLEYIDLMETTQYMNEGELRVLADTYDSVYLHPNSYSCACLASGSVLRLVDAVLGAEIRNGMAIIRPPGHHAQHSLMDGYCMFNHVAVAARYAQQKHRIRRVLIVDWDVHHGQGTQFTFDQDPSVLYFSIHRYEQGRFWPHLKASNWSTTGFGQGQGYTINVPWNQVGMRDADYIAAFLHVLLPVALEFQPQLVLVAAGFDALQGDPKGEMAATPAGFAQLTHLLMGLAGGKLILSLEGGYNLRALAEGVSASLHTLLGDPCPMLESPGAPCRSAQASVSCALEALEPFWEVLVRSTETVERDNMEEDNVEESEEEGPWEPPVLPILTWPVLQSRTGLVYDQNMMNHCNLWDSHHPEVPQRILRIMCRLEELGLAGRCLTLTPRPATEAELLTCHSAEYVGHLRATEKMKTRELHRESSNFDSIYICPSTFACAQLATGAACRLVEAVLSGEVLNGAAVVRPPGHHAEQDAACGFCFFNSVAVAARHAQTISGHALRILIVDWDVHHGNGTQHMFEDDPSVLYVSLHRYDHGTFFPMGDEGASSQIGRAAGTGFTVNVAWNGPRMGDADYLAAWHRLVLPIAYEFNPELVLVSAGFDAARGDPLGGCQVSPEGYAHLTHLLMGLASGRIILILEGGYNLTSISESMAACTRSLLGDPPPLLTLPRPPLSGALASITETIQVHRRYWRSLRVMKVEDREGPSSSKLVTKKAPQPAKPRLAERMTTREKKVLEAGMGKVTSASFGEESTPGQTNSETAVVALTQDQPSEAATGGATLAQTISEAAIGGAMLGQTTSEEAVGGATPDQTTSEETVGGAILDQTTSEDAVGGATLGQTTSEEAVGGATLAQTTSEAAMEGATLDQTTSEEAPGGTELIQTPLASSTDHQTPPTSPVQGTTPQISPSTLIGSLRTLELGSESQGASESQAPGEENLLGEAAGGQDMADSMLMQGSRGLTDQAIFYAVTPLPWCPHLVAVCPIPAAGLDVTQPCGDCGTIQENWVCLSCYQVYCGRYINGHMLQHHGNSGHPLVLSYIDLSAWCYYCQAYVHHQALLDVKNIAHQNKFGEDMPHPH", "assay": "Inhibition of full length N-terminal GST-tagged human HDAC6 expressed in baculovirus expression system at 1 uM using ZMAL as substrate incubated for 90 mins by fluorescence assay relative to control"}, "Histone deacetylase 1 [2]": {"biological_target": "T2, Histone deacetylase 1 (Homo sapiens, UniProt Q13547)", "T2 sequence (Q13547 whole entry)": "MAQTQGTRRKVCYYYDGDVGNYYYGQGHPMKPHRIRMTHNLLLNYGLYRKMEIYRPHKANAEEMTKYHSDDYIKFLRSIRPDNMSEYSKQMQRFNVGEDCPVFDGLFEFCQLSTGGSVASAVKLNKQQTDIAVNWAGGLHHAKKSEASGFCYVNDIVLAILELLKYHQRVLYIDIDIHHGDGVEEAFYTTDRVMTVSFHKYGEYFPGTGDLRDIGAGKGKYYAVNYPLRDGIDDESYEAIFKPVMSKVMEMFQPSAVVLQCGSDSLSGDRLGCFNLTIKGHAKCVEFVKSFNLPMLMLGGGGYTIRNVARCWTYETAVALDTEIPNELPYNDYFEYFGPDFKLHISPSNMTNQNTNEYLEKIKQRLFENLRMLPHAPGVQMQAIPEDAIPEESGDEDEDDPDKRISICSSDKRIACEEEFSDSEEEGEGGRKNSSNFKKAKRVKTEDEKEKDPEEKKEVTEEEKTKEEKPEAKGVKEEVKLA", "assay": "Inhibition of full length C-terminal His/FLAG-tagged human HDAC1 expressed in baculovirus expression system at 1 uM using ZMAL as substrate incubated for 90 mins by fluorescence assay relative to control"}, "Homo sapiens": {"organism": "Homo sapiens", "assay": "Selectivity ratio of IC50 for full length C-terminal His/FLAG-tagged human HDAC1 expressed in baculovirus expression system to IC50 full length N-terminal GST-tagged human HDAC6 expressed in baculovirus expression system"}, "[3]": {"biological_target": "T3, Protein deacetylase HDAC6 (Homo sapiens, UniProt Q9UBN7)", "T3 sequence (Q9UBN7 whole entry)": "T1 sequence (whole entry)", "assay": "Inhibition of full length N-terminal GST-tagged human HDAC6 expressed in baculovirus expression system using ZMAL as substrate incubated for 90 mins by fluorescence assay"}, "Histone deacetylase 1 [4]": {"biological_target": "T2, Histone deacetylase 1", "assay": "Inhibition of full length C-terminal His/FLAG-tagged human HDAC1 expressed in baculovirus expression system using ZMAL as substrate incubated for 90 mins by fluorescence assay"}, "Ca9-22": {"tested_on": "Ca9-22", "assay": "Antiproliferative activity against human Ca9-22 cells assessed as reduction in cell viability measured after 48 hrs by alamar blue dye based spectrofluorometry", "format": "functional", "settings": "Ca9-22, 48 h"}, "[5]": {"assay": "Antiproliferative activity against human TR-146 cells assessed as reduction in cell viability measured after 48 hrs by alamar blue dye based spectrofluorometry", "format": "functional", "settings": "TR146, 48 h"}}, "data": [{"smiles": "CN1CC2(CCN(Cc3ccc(C(=O)NO)cc3)CC2)c2cccc(-c3ccccc3)c21", "values": [{"measurement": "inhibition", "setting": "[1]", "result": 50, "unit": "%"}, {"measurement": "inhibition", "setting": "Histone deacetylase 1 [2]", "result": 8.5, "unit": "%"}]}, {"smiles": "CC(C)(C)OC(=O)N1CCC2(CC1)CN(Cc1ccc(C(=O)NO)cc1)c1ccccc12", "values": [{"measurement": "Ratio IC50", "setting": "Homo sapiens", "result": 95}]}, {"smiles": "O=C(NO)c1ccc(CN2CCC3(CC2)CN(Cc2ccccc2)c2c(-c4ccccc4)cccc23)cc1", "values": [{"measurement": "inhibition", "setting": "[1]", "result": 29.7, "unit": "%"}, {"measurement": "inhibition", "setting": "Histone deacetylase 1 [2]", "result": 2.9, "unit": "%"}]}, {"smiles": "O=C(NO)c1ccc(CN2CCC3(CC2)CN(C(=O)c2ccccc2)c2c(-c4ccccc4)cccc23)cc1", "values": [{"measurement": "IC50", "setting": "[3]", "result": 0.465, "unit": "µM"}, {"measurement": "IC50", "setting": "Histone deacetylase 1 [4]", "result": 4.7, "unit": "µM"}, {"measurement": "Ratio IC50", "setting": "Homo sapiens", "result": 10}]}, {"smiles": "CN1CC2(CCN(Cc3ccc(C(=O)NO)s3)CC2)c2cccc(-c3ccccc3)c21", "values": [{"measurement": "inhibition", "setting": "[1]", "result": 51.3, "unit": "%"}, {"measurement": "inhibition", "setting": "Histone deacetylase 1 [2]", "result": 6.6, "unit": "%"}]}, {"smiles": "O=C(NO)c1ccc(CN2CCC3(CC2)CN(C(=O)c2ccccc2)c2ccccc23)cc1", "values": [{"measurement": "IC50", "setting": "Ca9-22", "result": "> 1000", "unit": "µM"}, {"measurement": "IC50", "setting": "[3]", "result": 0.155, "unit": "µM"}, {"measurement": "IC50", "setting": "Histone deacetylase 1 [4]", "result": 10.1, "unit": "µM"}, {"measurement": "Ratio IC50", "setting": "Homo sapiens", "result": 65}, {"measurement": "IC50", "setting": "[5]", "result": "> 1000", "unit": "µM"}]}]}
